Earlier results as cited in PMC8602434 (Drugs in R&D, 2021).

Key:
MC1R = settings: read-out: half maximal effective concentration (EC50); cited from earlier work
[1] = sc, dose of 33 µmol/kg; cited from earlier work
[2] = sc administration; cited from earlier work

For “α-melanocyte-stimulating hormone [α-MSH]”, the EC50 (MC1R) is listed as 0.22 nM.

For `CCCC(=O)C1(c2ccccc2)CCN(C(=O)[C@@H](Cc2ccc(OC)cc2)NC(=O)[C@@H](N)Cc2cncn2C)CC1` [BMS-470539], the Cmax [1] is listed as 11 µM.

In the case of bremelanotide, the tmax [2] is listed as 0.5 to 1.0 h and the t½ [2] is listed as 1.9 to 2.7 h.
